Molecules are shown by their SMILES.

Test [1] relates to Raji, human Burkitts lymphoma cells. Briefly: Cell-MTS cellular proliferation assay, Raji. The format is cell-based. The following applies: Homo sapiens, 168 hr incubation. The gist of the method:
(§1)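 Cells seeded to reach ~90% confluence at 7 days (Raji 15,000, HL-60 5,000, NCI-H460 3,000 per well); 11-point compound dilution, 100 µM to 2.0 nM final, added 24 h after plating. Exposure 168 hr at 37 °C, 5% CO2; MTS read at OD490. IC50 from background-subtracted OD490 normalized to DMSO controls.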
Background: Formazan colour is commonly taken as a measure of viable cells.

The test system of test [2] is NCI-H460, human non-small cell lung cancer cells. The experiment in a line: Cell-MTS cellular proliferation assay, NCI-H460. It counts as cell-based. The following applies: Homo sapiens, 168 hr incubation. The essentials:
as §1

Test [3] relates to HL-60, human proleukemia cells. The experiment in a line: Cell-MTS cellular proliferation assay, HL-60. The settings on record: Homo sapiens, HL-60 cells, 168 hr incubation. The format is cell-based. The essentials: as §1
Test [4] deals with BRD4(BD1) (Homo sapiens (Human), UniProt O60885). Briefly: In vitro enzyme inhibition assay (BRD4 AlphaScreen, H4-tetraacetyl peptide). The format is binding. The following applies: BRD4(BD1) 2 nM, peptide 15 nM. The gist of the method:
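His-tagged BRD4(BD1), 2 nM, with 15 nM biotinylated H4K5/8/12/16(Ac) peptide in HEPES pH 7.3 buffer, 0.4% DMSO, 20 min RT with compound. Streptavidin donor and Ni-chelate acceptor beads (5 μg/mL) then equilibrated 2 h. AlphaScreen signal; IC50 by four-parameter fit.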

With `CCS(=O)(=O)N1CCc2cc(OCC3CC3)c(-c3cn(C)c(=O)c4ccccc34)cc21` [Example 14, 4-[5-(cyclopropylmethoxy)-1-ethylsulfonyl-2,3-dihydroindol-6-yl]-2-methylisoquinolin-1-one], the concentration for half-maximal inhibition (IC50) was no more than 0.5 µM in test [1], 0.5 to 5 µM in test [2], no more than 0.5 µM in test [3] and no more than 0.5 µM in test [4].

With `Cc1cc(-c2cc(NS(C)(=O)=O)c3c(c2)N(Cc2ccccc2)CC3)cn(C)c1=O` [Example 19, N-[1-benzyl-6-(1,5-dimethyl-6-oxopyridin-3-yl)-2,3-dihydroindol-4-yl]methanesulfonamide], the IC50 in test [1] is no more than 0.5 µM; in test [2], 0.5 to 5 µM; in test [3] it was no more than 0.5 µM; in test [4] it was no more than 0.5 µM.

What is called IC50 is the concentration that gives 50% inhibition.

Source of the values: patent US10807982B2, “Bromodomain inhibitors” (CELGENE QUANTICEL RESEARCH, INC., priority 2015, dated 2020).
